# Measured values published in patent publication US20120128788A1, “COLLAGEN PRODUCTION ENHANCER” (SOFSERA CORPORATION, priority 2009, published 2012).
# Where “and” joins values, the source holds several entries; their conditions need not be identical. Equal entries are not always repeated.
# System: Fibroblasts of a normal human
# Test: Test for determining activity of fibroblast to enhance type I collagen production (ELISA of culture medium)
# Type: cell-based
# Conditions: positive control, 25 μM, 24 h, n=6
# Procedure: Fibroblasts of a normal human were cultured for 24 hours in 0.5% FBS-DMEM culture medium containing the test sample, and the amount of collagen in the culture medium was quantified by ELISA. The test was carried out by repeating six times for each condition (n=6). As a positive control (P.C.), magnesium ascorbyl phosphate (VCPMg) was used. The test samples employed were the calcined hydroxyapatite that is produced in the Production Example 1 and the non-calcined hydroxyapatite that is used in the Production Example 2.
smiles,measurement,value
"O=C1O[C@H]([C@@H](O)CO)C([O-])=C1OP(=O)([O-])[O-].O=C1O[C@H]([C@@H](O)CO)C([O-])=C1OP(=O)([O-])[O-].[Mg+2].[Mg+2].[Mg+2] [VC-PMg, magnesium ascorbyl phosphate]",Collagen Mean ± SD,24.28 ± 1.06 μg/mg protein and 19.75 ± 1.11 μg/mg protein
